Experimental data as given in patent publication US20230085307A1, “PYRIDAZINONE COMPOUND AND HERBICIDE” (NISSAN CHEMICAL CORPORATION, priority 2019, published 2023).

How the values were obtained:
chickweed [1] = experiment: Test Example 4: herbicidal effect by soil treatment (Table 19, symbol P); format: in vivo, common chickweed (Stellaria media); settings: amount of applied herbicide 320 g/ha
Method in brief: (§1)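 Applied as a water-diluted emulsion, the compound was sprayed onto soil covering newly sown seeds. Evaluation came three weeks after application, in a greenhouse held at 25° C. to 30° C.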

redroot pigweed [2] = experiment: Test Example 5: herbicidal effect by foliage application, plastic box (Table 20, symbol N); format: in vivo, redroot pigweed (Amaranthus retroflexus); settings: 320 g/ha, foliage application after 14-day growth, evaluated three weeks after application
Method in brief: (§2)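 Sow seeds spot-wise in sterilized diluvial soil; cover with ~1.5 cm soil. Grow 14 days in greenhouse, 25° C. to 30° C. Spray foliage with emulsion diluted to predetermined amount. Rate effect after 3 weeks.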

barnyard grass [3] = experiment: Test Example 3: herbicidal effect by foliage application, Wagner pot (Table 18, symbol H); format: in vivo, barnyard grass (Echinochloa crus-galli); settings: 320 g/ha
Method in brief: (§3)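 Plants were sown in alluvial soil held under 0.1–0.5 cm standing water and grown 14 days in a greenhouse at 25–30 °C. An emulsifiable formulation, water-diluted to the set dose, was then sprayed onto the foliage, and effects were scored three weeks later using previously defined criteria.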

rice flat sedge = experiment: Test Example 3: herbicidal effect by foliage application, Wagner pot (Table 18, symbol E); format: in vivo, rice flat sedge (Cyperus iria); settings: 320 g/ha
Method in brief: as §3

wild oat [4] = experiment: Test Example 5: herbicidal effect by foliage application, plastic box (Table 20, symbol I); format: in vivo, wild oat (Avena fatua); settings: 320 g/ha, foliage application after 14-day growth, evaluated three weeks after application
Method in brief: as §2

redroot pigweed [5] = experiment: Test Example 4: herbicidal effect by soil treatment (Table 19, symbol N); format: in vivo, redroot pigweed (Amaranthus retroflexus); settings: amount of applied herbicide 320 g/ha
Method in brief: as §1

southern crabgrass [6] = experiment: Test Example 5: herbicidal effect by foliage application, plastic box (Table 20, symbol F); format: in vivo, southern crabgrass (Digitaria ciliaris); settings: 320 g/ha, foliage application after 14-day growth, evaluated three weeks after application
Method in brief: as §2

persian speedwell [7] = experiment: Test Example 5: herbicidal effect by foliage application, plastic box (Table 20, symbol R); format: in vivo, Persian speedwell (Veronica persica); settings: 320 g/ha, foliage application after 14-day growth, evaluated three weeks after application
Method in brief: as §2

blackgrass [8] = experiment: Test Example 4: herbicidal effect by soil treatment (Table 19, symbol J); format: in vivo, blackgrass (Alopecurus myosuroides); settings: amount of applied herbicide 320 g/ha
Method in brief: as §1

persian speedwell [9] = experiment: Test Example 4: herbicidal effect by soil treatment (Table 19, symbol R); format: in vivo, Persian speedwell (Veronica persica); settings: amount of applied herbicide 320 g/ha
Method in brief: as §1

wild oat [10] = experiment: Test Example 4: herbicidal effect by soil treatment (Table 19, symbol I); format: in vivo, wild oat (Avena fatua); settings: amount of applied herbicide 320 g/ha
Method in brief: as §1

southern crabgrass [11] = experiment: Test Example 4: herbicidal effect by soil treatment (Table 19, symbol F); format: in vivo, southern crabgrass (Digitaria ciliaris); settings: amount of applied herbicide 320 g/ha
Method in brief: as §1

velvetleaf [12] = experiment: Test Example 5: herbicidal effect by foliage application, plastic box (Table 20, symbol M); format: in vivo, velvetleaf (Abutilon theophrasti); settings: 320 g/ha, foliage application after 14-day growth, evaluated three weeks after application
Method in brief: as §2

windgrass [13] = experiment: Test Example 5: herbicidal effect by foliage application, plastic box (Table 20, symbol L); format: in vivo, windgrass (Apera spica-venti); settings: 320 g/ha, foliage application after 14-day growth, evaluated three weeks after application
Method in brief: as §2

green foxtail [14] = experiment: Test Example 4: herbicidal effect by soil treatment (Table 19, symbol G); format: in vivo, green foxtail (Setaria viridis); settings: amount of applied herbicide 320 g/ha
Method in brief: as §1

Italian ryegrass [15] = experiment: Test Example 4: herbicidal effect by soil treatment (Table 19, symbol K); format: in vivo, Italian ryegrass (Lolium multiflorum); settings: amount of applied herbicide 320 g/ha
Method in brief: as §1

blackgrass [16] = experiment: Test Example 5: herbicidal effect by foliage application, plastic box (Table 20, symbol J); format: in vivo, blackgrass (Alopecurus myosuroides); settings: 320 g/ha, foliage application after 14-day growth, evaluated three weeks after application
Method in brief: as §2

Chinese sprangletop = experiment: Test Example 3: herbicidal effect by foliage application, Wagner pot (Table 18, symbol D); format: in vivo, chinese sprangletop (Leptochloa chinensis); settings: 320 g/ha
Method in brief: as §3

barnyard grass [17] = experiment: Test Example 5: herbicidal effect by foliage application, plastic box (Table 20, symbol H); format: in vivo, barnyard grass (Echinochloa crus-galli); settings: 320 g/ha, foliage application after 14-day growth, evaluated three weeks after application
Method in brief: as §2

lambsquarters [18] = experiment: Test Example 4: herbicidal effect by soil treatment (Table 19, symbol O); format: in vivo, lambsquarters (Chenopodium album); settings: amount of applied herbicide 320 g/ha
Method in brief: as §1

chickweed [19] = experiment: Test Example 5: herbicidal effect by foliage application, plastic box (Table 20, symbol P); format: in vivo, common chickweed (Stellaria media); settings: 320 g/ha, foliage application after 14-day growth, evaluated three weeks after application
Method in brief: as §2

windgrass [20] = experiment: Test Example 4: herbicidal effect by soil treatment (Table 19, symbol L); format: in vivo, windgrass (Apera spica-venti); settings: amount of applied herbicide 320 g/ha
Method in brief: as §1

green foxtail [21] = experiment: Test Example 5: herbicidal effect by foliage application, plastic box (Table 20, symbol G); format: in vivo, green foxtail (Setaria viridis); settings: 320 g/ha, foliage application after 14-day growth, evaluated three weeks after application
Method in brief: as §2

Italian ryegrass [22] = experiment: Test Example 5: herbicidal effect by foliage application, plastic box (Table 20, symbol K); format: in vivo, Italian ryegrass (Lolium multiflorum); settings: 320 g/ha, foliage application after 14-day growth, evaluated three weeks after application
Method in brief: as §2

velvetleaf [23] = experiment: Test Example 4: herbicidal effect by soil treatment (Table 19, symbol M); format: in vivo, velvetleaf (Abutilon theophrasti); settings: amount of applied herbicide 320 g/ha
Method in brief: as §1

lambsquarters [24] = experiment: Test Example 5: herbicidal effect by foliage application, plastic box (Table 20, symbol O); format: in vivo, lambsquarters (Chenopodium album); settings: 320 g/ha, foliage application after 14-day growth, evaluated three weeks after application
Method in brief: as §2

barnyard grass [25] = experiment: Test Example 4: herbicidal effect by soil treatment (Table 19, symbol H); format: in vivo, barnyard grass (Echinochloa crus-galli); settings: amount of applied herbicide 320 g/ha
Method in brief: as §1

Compound	Herbicidal effect by soil treatment, P: chickweed (chickweed [1])	herbicidal effect on N: redroot pigweed (evaluation grade 0-5) (redroot pigweed [2])	herbicidal effect on barnyard grass (H) (barnyard grass [3])	herbicidal effect on rice flat sedge (E) (rice flat sedge)	herbicidal effect on I: wild oat (evaluation grade 0-5) (wild oat [4])	Herbicidal effect by soil treatment, N: redroot pigweed (redroot pigweed [5])	herbicidal effect on F: southern crabgrass (evaluation grade 0-5) (southern crabgrass [6])	herbicidal effect on R: persian speedwell (evaluation grade 0-5) (persian speedwell [7])	Herbicidal effect by soil treatment, J: blackgrass (blackgrass [8])	Herbicidal effect by soil treatment, R: persian speedwell (persian speedwell [9])	Herbicidal effect by soil treatment, I: wild oat (wild oat [10])	Herbicidal effect by soil treatment, F: southern crabgrass (southern crabgrass [11])	herbicidal effect on M: velvetleaf (evaluation grade 0-5) (velvetleaf [12])	herbicidal effect on L: windgrass (evaluation grade 0-5) (windgrass [13])	Herbicidal effect by soil treatment, G: green foxtail (green foxtail [14])	Herbicidal effect by soil treatment, K: Italian ryegrass (Italian ryegrass [15])	herbicidal effect on J: blackgrass (evaluation grade 0-5) (blackgrass [16])	herbicidal effect on Chinese sprangletop (D) (Chinese sprangletop)	herbicidal effect on H: barnyard grass (evaluation grade 0-5) (barnyard grass [17])	Herbicidal effect by soil treatment, O: lambsquarters (lambsquarters [18])	further results
CCCOc1ccc(-c2sc3c(Cl)cccc3c2-c2c(O)c(C)nn(C)c2=O)cc1 [4-027]	5 (Herbicidal rate of 90% or more (almost completely withered))	5 (Herbicidal rate of 90% or more (almost completely withered))	5 (Herbicidal rate of 90% or more (almost completely withered))	0 (Herbicidal rate of 5% or less (almost no effect))	0 (Herbicidal rate of 5% or less (almost no effect))	4 (Herbicidal rate of 70% or more and less than 90%)	0 (Herbicidal rate of 5% or less (almost no effect))	5 (Herbicidal rate of 90% or more (almost completely withered))	0 (Herbicidal rate of 5% or less (almost no effect))	1 (Herbicidal rate of 5% or more and less than 20%)	0 (Herbicidal rate of 5% or less (almost no effect))	0 (Herbicidal rate of 5% or less (almost no effect))	4 (Herbicidal rate of 70% or more and less than 90%)	3 (Herbicidal rate of 40% or more and less than 70%)	0 (Herbicidal rate of 5% or less (almost no effect))	0 (Herbicidal rate of 5% or less (almost no effect))	3 (Herbicidal rate of 40% or more and less than 70%)	0 (Herbicidal rate of 5% or less (almost no effect))	4 (Herbicidal rate of 70% or more and less than 90%)	2 (Herbicidal rate of 20% or more and less than 40%)	herbicidal effect on P: chickweed (evaluation grade 0-5) (chickweed [19]): 5 (Herbicidal rate of 90% or more (almost completely withered)); Herbicidal effect by soil treatment, L: windgrass (windgrass [20]): 0 (Herbicidal rate of 5% or less (almost no effect)); herbicidal effect on G: green foxtail (evaluation grade 0-5) (green foxtail [21]): 0 (Herbicidal rate of 5% or less (almost no effect)); herbicidal effect on K: Italian ryegrass (evaluation grade 0-5) (Italian ryegrass [22]): 1 (Herbicidal rate of 5% or more and less than 20%); Herbicidal effect by soil treatment, M: velvetleaf (velvetleaf [23]): 0 (Herbicidal rate of 5% or less (almost no effect)); herbicidal effect on O: lambsquarters (evaluation grade 0-5) (lambsquarters [24]): 5 (Herbicidal rate of 90% or more (almost completely withered)); Herbicidal effect by soil treatment, H: barnyard grass (barnyard grass [25]): 0 (Herbicidal rate of 5% or less (almost no effect))
COc1cc(F)ccc1-c1sc2c(Cl)cccc2c1-c1c(O)c(C)nn(C)c1=O [4-033]	4 (Herbicidal rate of 70% or more and less than 90%)	2 (Herbicidal rate of 20% or more and less than 40%)	4 (Herbicidal rate of 70% or more and less than 90%)	3 (Herbicidal rate of 40% or more and less than 70%)	0 (Herbicidal rate of 5% or less (almost no effect))	2 (Herbicidal rate of 20% or more and less than 40%)	0 (Herbicidal rate of 5% or less (almost no effect))	5 (Herbicidal rate of 90% or more (almost completely withered))	0 (Herbicidal rate of 5% or less (almost no effect))	4 (Herbicidal rate of 70% or more and less than 90%)	0 (Herbicidal rate of 5% or less (almost no effect))	0 (Herbicidal rate of 5% or less (almost no effect))	3 (Herbicidal rate of 40% or more and less than 70%)	1 (Herbicidal rate of 5% or more and less than 20%)	0 (Herbicidal rate of 5% or less (almost no effect))	0 (Herbicidal rate of 5% or less (almost no effect))	0 (Herbicidal rate of 5% or less (almost no effect))	2 (Herbicidal rate of 20% or more and less than 40%)	3 (Herbicidal rate of 40% or more and less than 70%)	0 (Herbicidal rate of 5% or less (almost no effect))	herbicidal effect on P: chickweed (evaluation grade 0-5) (chickweed [19]): 5 (Herbicidal rate of 90% or more (almost completely withered)); Herbicidal effect by soil treatment, L: windgrass (windgrass [20]): 0 (Herbicidal rate of 5% or less (almost no effect)); herbicidal effect on G: green foxtail (evaluation grade 0-5) (green foxtail [21]): 0 (Herbicidal rate of 5% or less (almost no effect)); herbicidal effect on K: Italian ryegrass (evaluation grade 0-5) (Italian ryegrass [22]): 0 (Herbicidal rate of 5% or less (almost no effect)); Herbicidal effect by soil treatment, M: velvetleaf (velvetleaf [23]): 0 (Herbicidal rate of 5% or less (almost no effect)); herbicidal effect on O: lambsquarters (evaluation grade 0-5) (lambsquarters [24]): 0 (Herbicidal rate of 5% or less (almost no effect)); Herbicidal effect by soil treatment, H: barnyard grass (barnyard grass [25]): 0 (Herbicidal rate of 5% or less (almost no effect))
